Reference: US12410208B2, “(2-acetamidyl)thio-beta-D-galactopyranoside derivatives” (Idorsia Pharmaceuticals Ltd, priority 2020, dated 2025)
Read-outs that look alike come from different tables or passages of the source.

Columns and labels:
[1] = target: biotinylated human Gal-3 (hGal-3) (Homo sapiens, UniProt P17931); assay: Competitive binding assay: biotinylated hGal-3 binding to microplate-adsorbed asialofetuin (ASF), spectrophotometric
Method in brief: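 Serially diluted compounds competed with asialofetuin on the plate for biotinylated human Gal-3 during a 3 h incubation at 4° C. Streptavidin-peroxidase with ABTS gave the spectrophotometric signal. IC50 values were averaged over repeat runs.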

human Gal-1 (hGal-1) = human Gal-1 (hGal-1) (Homo sapiens, UniProt P09382); assay: Competitive binding assay: biotinylated hGal-1 binding to microplate-adsorbed asialofetuin (ASF), spectrophotometric; settings: hGal-1 binding to asialofetuin; Table 15; R and S epimers of selected Examples also listed; read-out: IC50 (Galectin-1 inhibition)
Chain of human Gal-1 (hGal-1) (P09382 whole entry): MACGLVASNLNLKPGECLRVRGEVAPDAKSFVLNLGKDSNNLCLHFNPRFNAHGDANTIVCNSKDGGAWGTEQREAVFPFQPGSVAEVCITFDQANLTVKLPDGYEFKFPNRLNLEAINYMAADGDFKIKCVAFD
Method in brief: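 Spectrophotometric competition readout with ABTS after streptavidin-peroxidase (80 ng/mL, 1 h, 4 °C) detection of bound biotinylated hGal-1.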

[2] = Gal-3 inhibition, Table 5, read-out: IC50
[3] = Table 12, hGal-3, read-out: IC50 (Gal-3 inhibition)
[4] = Table 13, hGal-3, read-out: IC50 (Gal-3 inhibition)
[5] = Gal-3 inhibition, Table 4, read-out: IC50
[6] = Table 8, hGal-3, read-out: IC50 (Gal-3 inhibition)

Chain of biotinylated human Gal-3 (hGal-3) (P17931 whole entry): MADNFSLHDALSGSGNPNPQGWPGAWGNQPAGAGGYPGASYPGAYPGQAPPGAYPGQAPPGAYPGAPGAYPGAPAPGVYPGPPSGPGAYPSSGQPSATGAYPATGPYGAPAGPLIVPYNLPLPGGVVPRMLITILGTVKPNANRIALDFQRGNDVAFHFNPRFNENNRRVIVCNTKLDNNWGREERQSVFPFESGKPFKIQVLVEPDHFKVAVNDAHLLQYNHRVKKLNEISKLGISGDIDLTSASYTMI

Row | Compound | IC50 (human Gal-1 (hGal-1)) | further results
1 | CCN(CC1CC1)C(=O)C(S[C@@H]1O[C@H](CO)[C@H](O)[C@H](n2cc(-c3cc(F)c(F)c(F)c3)nn2)[C@H]1OC)C1(O)CCC(F)(F)CC1 (stereo partly drawn) [Example 2.44.239.I.] | 20 nM | IC50 ([1]; Table 10, hGal-3, read-out: IC50 (Gal-3 inhibition)): 40 nM
2 | O=C(C(S[C@@H]1O[C@H](CO)[C@H](O)[C@H](n2cc(-c3cc(F)c(F)c(F)c3)nn2)[C@H]1O)C1(O)CCC(F)(F)CC1)N1CCC(F)(F)CC1 (stereo partly drawn) [Example 2.44.226., 2-(4,4-Difluoro-1-hydroxycyclohexyl)-1-(4,4-difluoropiperidin-1-yl)-2-(((2S,3R,4S,5R,6R)-3,5-dihydroxy-6-(hydroxymethyl)-4-(4-(3,4,5-trifluorophenyl)-1H-1,2,3-triazol-1-yl)tetrahydro-2H-pyran-2-yl)thio)ethan-1-one] | 110 nM | IC50 [1, 2]: 90 nM
3 | CC1CCN1C(=O)C(S[C@@H]1O[C@H](CO)[C@H](O)[C@H](n2cc(-c3cc(F)c(F)c(F)c3)nn2)[C@H]1O)C(C)(C)O (stereo partly drawn) [Example 2.31.204., 2-(((2S,3R,4S,5R,6R)-3,5-Dihydroxy-6-(hydroxymethyl)-4-(4-(3,4,5-trifluorophenyl)-1H-1,2,3-triazol-1-yl)tetrahydro-2H-pyran-2-yl)thio)-3-hydroxy-3-methyl-1-(2-methylazetidin-1-yl)butan-1-one] | 2800 nM | IC50 ([1]; Gal-3 inhibition, Table 3, read-out: IC50): 140 nM
4 | CCC(CC)NC(=O)C(S[C@@H]1O[C@H](CO)[C@H](O)[C@H](n2cc(-c3cc(F)c(F)c(F)c3)nn2)[C@H]1OC)C1(O)CCC(F)(F)CC1 (stereo partly drawn) [Example 2.44.250.I., 2-(4,4-Difluoro-1-hydroxycyclohexyl)-2-(((2S,3R,4S,5R,6R)-5-hydroxy-6-(hydroxymethyl)-3-methoxy-4-(4-(3,4,5-trifluorophenyl)-1H-1,2,3-triazol-1-yl)tetrahydro-2H-pyran-2-yl)thio)-N-(pentan-3-yl)acetamide] | 270 nM | IC50 [1, 3]: 50 nM
5 | (R)-N-Cyclobutyl-2-(4,4-difluoro-1-hydroxycyclohexyl)-2-(((2S,3R,4S,5R,6R)-3,5-dihydroxy-6-(hydroxymethyl)-4-(4-(3,4,5-trifluorophenyl)-1H-1,2,3-triazol-1-yl)tetrahydro-2H-pyran-2-yl)thio)-N-methylacetamide [Example 2.44.206R.] | 1480 nM | IC50 [1, 2]: 440 nM
6 | CN(C(=O)[C@H](S[C@@H]1O[C@H](CO)[C@H](O)[C@H](n2cc(-c3cc(F)c(F)c(F)c3)nn2)[C@H]1O)C1(O)CCOCC1)c1ccccc1 [Example 2.41.231R.] | 8260 nM | IC50 ([1]; Table 9, hGal-3, read-out: IC50 (Gal-3 inhibition)): 3440 nM
7 | CO[C@@H]1[C@@H](n2cc(-c3cc(F)c(F)c(F)c3)nn2)[C@@H](O)[C@@H](CO)O[C@H]1S[C@H](C(=O)N1CCC(F)(F)CC1)C1(O)CCC2(CCCC2)CC1 [Example 2.71.226S.I., (S)-1-(4,4-Difluoropiperidin-1-yl)-2-(((2S,3R,4S,5R,6R)-5-hydroxy-6-(hydroxymethyl)-3-methoxy-4-(4-(3,4,5-trifluorophenyl)-1H-1,2,3-triazol-1-yl)tetrahydro-2H-pyran-2-yl)thio)-2-(8-hydroxyspiro[4.5]decan-8-yl)ethan-1-one] | 270 nM | IC50 [1, 4]: 100 nM
8 | O=C(C(S[C@@H]1O[C@H](CO)[C@H](O)[C@H](n2cc(-c3cc(F)c(F)c(F)c3)nn2)[C@H]1O)C1(O)CCOCC1)N1CCc2ccccc21 (stereo partly drawn) [Example 2.41.209., 2-(((2S,3R,4S,5R,6R)-3,5-Dihydroxy-6-(hydroxymethyl)-4-(4-(3,4,5-trifluorophenyl)-1H-1,2,3-triazol-1-yl)tetrahydro-2H-pyran-2-yl)thio)-2-(4-hydroxytetrahydro-2H-pyran-4-yl)-1-(indolin-1-yl)ethan-1-one] | 310 nM | IC50 [1, 5]: 150 nM
9 | CN(CC(C)(C)F)C(=O)[C@H](S[C@@H]1O[C@H](CO)[C@H](O)[C@H](n2cc(-c3cc(F)c(F)c(F)c3)nn2)[C@H]1O)C1(O)CCC1 [Example 2.34.222R., (R)-2-(((2S,3R,4S,5R,6R)-3,5-Dihydroxy-6-(hydroxymethyl)-4-(4-(3,4,5-trifluorophenyl)-1H-1,2,3-triazol-1-yl)tetrahydro-2H-pyran-2-yl)thio)-N-(2-fluoro-2-methylpropyl)-2-(1-hydroxycyclobutyl)-N-methylacetamide] | 46000 nM | IC50 [1, 2]: 8610 nM
10 | O=C([C@@H](S[C@@H]1O[C@H](CO)[C@H](O)[C@H](n2cc(-c3cc(F)c(F)c(F)c3)nn2)[C@H]1O)C1(O)CCOCC1)N1CCCCC1 [Example 2.41.208S., (S)-2-(((2S,3R,4S,5R,6R)-3,5-Dihydroxy-6-(hydroxymethyl)-4-(4-(3,4,5-trifluorophenyl)-1H-1,2,3-triazol-1-yl)tetrahydro-2H-pyran-2-yl)thio)-2-(4-hydroxytetrahydro-2H-pyran-4-yl)-1-(piperidin-1-yl)ethan-1-one] | 800 nM | IC50 [1, 5]: 20 nM
11 | CO[C@@H]1[C@@H](n2cc(-c3cc(F)c(F)c(F)c3)nn2)[C@@H](O)[C@@H](CO)O[C@H]1SC(C(=O)N(C)C(C)C)C1(O)CCC(F)(F)CC1 (stereo partly drawn) [Example 2.44.242.I., 2-(4,4-Difluoro-1-hydroxycyclohexyl)-2-(((2S,3R,4S,5R,6R)-5-hydroxy-6-(hydroxymethyl)-3-methoxy-4-(4-(3,4,5-trifluorophenyl)-1H-1,2,3-triazol-1-yl)tetrahydro-2H-pyran-2-yl)thio)-N-isopropyl-N-methylacetamide] | 110 nM | IC50 [1, 3]: 80 nM
12 | CCN(C)C(=O)[C@H](S[C@@H]1O[C@H](CO)[C@H](O)[C@H](n2cc(-c3cc(F)c(F)c(F)c3)nn2)[C@H]1O)C1(O)CCN(S(C)(=O)=O)CC1 [Example 2.47.203R., (R)-2-(((2S,3R,4S,5R,6R)-3,5-Dihydroxy-6-(hydroxymethyl)-4-(4-(3,4,5-trifluorophenyl)-1H-1,2,3-triazol-1-yl)tetrahydro-2H-pyran-2-yl)thio)-N-ethyl-2-(4-hydroxy-1-(methylsulfonyl)piperidin-4-yl)-N-methylacetamide] | 33900 nM | IC50 [1, 6]: 6770 nM
13 | CCN(C)C(=O)C(S[C@@H]1O[C@H](CO)[C@H](O)[C@H](n2cc(-c3cc(F)c(F)c(F)c3)nn2)[C@H]1O)C1(O)CCN(S(C)(=O)=O)CC1 (single isomer, unassigned) [Example 2.47.203S.] | 30 nM | IC50 [1, 6]: 10 nM
14 | CN(CCC1CCOCC1)C(=O)C(S[C@@H]1O[C@H](CO)[C@H](O)[C@H](n2cc(-c3cc(F)c(F)c(F)c3)nn2)[C@H]1O)C1(O)CCOCC1 (stereo partly drawn) [Example 2.41.216., 2-(((2S,3R,4S,5R,6R)-3,5-Dihydroxy-6-(hydroxymethyl)-4-(4-(3,4,5-trifluorophenyl)-1H-1,2,3-triazol-1-yl)tetrahydro-2H-pyran-2-yl)thio)-2-(4-hydroxytetrahydro-2H-pyran-4-yl)-N-methyl-N-(2-(tetrahydro-2H-pyran-4-yl)ethyl)acetamide] | 380 nM | IC50 [1, 5]: 60 nM
15 | CO[C@@H]1[C@@H](n2cc(-c3cc(F)c(F)c(F)c3)nn2)[C@@H](O)[C@@H](CO)O[C@H]1SC(C(=O)N1CCC(F)(F)CC1)C1(O)CCC2(CCOCC2)CC1 (stereo partly drawn) [Example 2.72.226.I., 1-(4,4-Difluoropiperidin-1-yl)-2-(((2S,3R,4S,5R,6R)-5-hydroxy-6-(hydroxymethyl)-3-methoxy-4-(4-(3,4,5-trifluorophenyl)-1H-1,2,3-triazol-1-yl)tetrahydro-2H-pyran-2-yl)thio)-2-(9-hydroxy-3-oxaspiro[5.5]undecan-9-yl)ethan-1-one] | 120 nM | IC50 [1, 4]: 60 nM
